Measurements from article PMC12517324, “Hyperagonism of a Vitamin D Receptor Agonist/Histone Deacetylase Inhibitor Hybrid Molecule” (Journal of Medicinal Chemistry, 2025).

Tested on: B16–F10 cells
Experiment: RNaseq gene expression profiling;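 on logFC Cck: Hybrid compounds tested at 10 µM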;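 on logFC Cited1: Hybrid compounds tested at 10 µM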
Assay type: cell-based, mouse
Conditions: 100 nM, 24 h
Method: AC-340 superinduced CYP24A1 expression in all cell lines tested, and ZG-126 appeared to be a hyperagonist in SK-MEL-28 cells. […] AC-340 treatment produced 3 times more differentially expressed genes (DEGs) than AM-193, with ZG-126 producing an intermediate number (Figure A). […] The varying effects of each treatment on the numbers of regulated genes and the fold changes observed are reflected in plots of log-fold changes and volcano plots (Figure S3B).
A quality control was performed before sequencing in paired-end at 50 M reads by Illumina NovaSeq 6000 S4 PE100. After sequencing, the FASTQ files were sent to us and all downstream analysis were performed on Galaxy (Galaxy (usegalaxy.org)). First, trimmomatic tool was used to remove the adapters from the reads. Then, using the alignment tool, HISAT2, the reads were mapped to the mouse genome. In the next step, the counted reads were annotated and finally the list of differentially expressed genes (DEGs) for each treatment was obtained using the preinstalled R package called Limma.

O=C(CCCCCCC(=O)Nc1ccccc1)NO [SAHA, suberoylanilide hydroxamic acid]
logFC 1500009L16Rik: 0.7062 | logFC Abca13: 0.7574 | logFC Adam19: 0.5841 | logFC Adamts7: 1.124 | logFC Adamts14: 1.217 | logFC Ank3: 0.7456 | logFC Apbb1: 0.8022 | logFC Atcay: 1.535 | logFC Atp1b2: 0.7178 | logFC Atp2b4: 0.9179 | logFC Bcan: 0.5824 | logFC Btn1a1: 2.439 | logFC C1qtnf1: 1.607 | logFC C1s1: 0.9877 | logFC Card10: 0.6233 | logFC Cck: -0.6184 | logFC Ccl2: 0.7906 | logFC Chn1: 0.6625 | logFC Cited1: -0.5815 | logFC Clcnka: 1.628 | logFC Clu: 0.9236 | logFC Col1a1: 1.702 | logFC Cpm: 0.8993 | logFC Crip1: 0.7228 | logFC Crmp1: 0.7266 | logFC Csdc2: 1.013 | logFC Dock10: 0.6896 | logFC Egfl7: 0.5994 | logFC Elovl4: 0.6542 | logFC Enpp1: 0.7446 | logFC Enpp3: 0.9035 | logFC Entpd2: 0.9577 | logFC Fam131b: 1.153 | logFC Fbxo41: 0.8175 | logFC Fstl1: 1.348 | logFC Gli1: 1.843 | logFC Glipr2: 0.8149 | logFC Gpr162: 0.6749 | logFC Gsdmc: 0.6713 | logFC Gstt1: 1.731 | logFC Hoxb9: 0.9565 | logFC Itga8: 0.6392 | logFC Jam2: 0.5927 | logFC Kcnh2: 1.1509 | logFC Kcnt1: 2.101 | logFC Kdelr3: 0.5979 | logFC Klrg2: 0.6093 | logFC Loxl4: 0.8565 | logFC Lrp11: 0.65 | logFC Lrrc75b: 1.006 | logFC Ltbp4: 1.299 | logFC Map2: 0.5974 | logFC Mgat3: 0.5859 | logFC Mmp11: 0.7246 | logFC Mmp17: 1.252 | logFC Mogat2: 0.5856 | logFC Myl9: 0.6886 | logFC Nacad: 0.9826 | logFC Ndrg4: 0.8254 | logFC Neurl1a: 0.5887 | logFC Notch1: 0.8121 | logFC Palld: 0.5874 | logFC Pcdh17: 0.6033 | logFC Pdgfra: 1.16 | logFC Plat: 0.5899 | logFC Plppr2: 0.641 | logFC Plppr3: 0.7184 | logFC Pmm1: 0.5873 | logFC Ppm1j: 0.9349 | logFC Prelp: 0.6949 | logFC Prnd: 0.9638 | logFC Prph: 1.113 | logFC Ptgs1: 0.7769 | logFC Rab7b: 1.164 | logFC Rasa4: 1.171 | logFC Rcn3: 0.5908 | logFC Reep6: 0.6217 | logFC Rflnb: 0.6241 | logFC Rhpn2: 0.7266 | logFC Rtn2: 0.735 | logFC Rtn4rl2: 1.53 | logFC Rundc3a: 0.8211 | logFC S100a6: 0.8372 | logFC Scube3: 0.7375 | logFC Septin4: 0.8607 | logFC Septin5: 1.1153 | logFC Spn: 1.292 | logFC Sptbn2: -0.6313 | logFC Stum: 0.9146 | logFC Syt3: 1.3692 | logFC Syt7: 0.603 | logFC Tagln2: 0.7428 | logFC Tgm2: 1.1319 | logFC Thbs3: 0.7215 | logFC Tlr1: 0.6918 | logFC Trim47: 0.6166 | logFC Trnp1: 0.6142 | logFC Uchl1: 0.7608 | logFC Vash1: 0.6486 | logFC Vdr: 1.045 | logFC Wfdc1: 0.7568 | logFC Wnt6: 1.4553
